The values below come from patent US9474730B2, “Methods and compositions for use with K-ras mediated disorders” (Board of Regents of the University of Texas System, priority 2012, dated 2016).

SMILES strings stand for the structures. Structures can show the parent of a compound that is named as a salt.

In assay [1] the target is T1, GFP-K-rasG12V in MDCK or BHK cells (Homo sapiens, UniProt P01116, G12V).
T1 construct: MDCK and BHK cells expressing GFP-tagged full length constitutively active Ras (G12V) proteins; expressed in transfected cells
Briefly: Cellular fractionation (P100/S100) with quantitative Western blotting, GFP-K-rasG12V. Type of assay: cell-based, canine (MDCK), hamster (BHK). Particulars: 4 μg/mL for MDCK and 6 μg/mL for BHK, 48 hours, vs vehicle. As to the method:
Following treatment, membrane (P100) and soluble (S100) protein fractions were prepared and analyzed by quantitative Western blotting.
(§1) Preparation of whole-cell lysates: cells were lysed in Buffer B (50 mM Tris [pH 7.5], 75 mM NaCl, 25 mM NaF, 5 mM MgCl2, 5 mM EGTA, 1 mM dithiothreitol, 100 μM NaVO4, 1% Nonidet P-40 plus protease inhibitors). Cellular fractionation: cells were incubated in Buffer A (10 mm Tris-HCl, pH 7.5, 25 mm NaF, 5 mm MgCl2, 1 mm EGTA, 1 mm dithiothreitol, 100 μm NaVO4 plus protease inhibitors) for 30 minutes on ice and lysed by passing through a 27 G needle 30 times. The post nuclear supernatant was centrifuged at 100,000 g for 30 minutes and the membrane pellet was resuspended in Buffer A containing 1% Triton X-100.
SDS-PAGE and Western blotting with the specified antibody were performed using 20 μg of each whole cell lysate/P100 fraction and volumes of S100 equal to that of the corresponding P100. Signal was detected by enhanced chemiluminescence (SuperSignal; Pierce, Thermo Fisher Scientific, Rockford, Ill.) and imaged by FluorChemQ (Alpha Inotech, San Leandro, Calif., USA). Quantification of intensities was performed using FluorChemQ software.

For assay [2], the system named is Raf kinase activity in BHK cells stably expressing K-rasG12V. The assay can be described thus: Raf kinase assay on membrane fractions of treated cells (coupled MEK/ERK assay). Type of assay: cell-based, hamster. Particulars: 6 μg/mL, 48 h; phosphorylation of recombinant ERK substrate. On the procedure:
FIG. 5: Illustrates that fendiline HCl inhibits Raf kinase activity and signaling downstream of oncogenic K-ras: BHK cells stably expressing K-rasG12V were treated with vehicle or fendiline HCl (6 μg/mL) for 48 h. (A) Raf kinase activity in membrane fractions prepared from the cells was measured in a coupled […] kinase assay. Data is shown as mean±SEM from 3 independent experiments. (B) ppMEK and ppERK in soluble protein fraction and pAkt levels in membrane protein fraction were measured by quantitative Western blotting. Actin and Akt were used as loading controls for soluble and membrane fractions, respectively. A representative blots are shown. Data is shown as mean±SEM from 3-4 independent experiments. Statistical significance was calculated using one way ANOVA and Student's T-test. (*=p<0.05), wherein experimentation was performed in accordance with principles described herein;
Membrane (P100) fractions were prepared from BHK or MDCK cells were dissolved in Buffer A containing 1% TritonX100. Solubilized P100 fractions were incubated with combinations of recombinant MEK and ERK in the presence of Mg^2+-ATP (40 mM and 0.5 mM, respectively) After 30 min at 30° C. with vigorous shaking, the pMEK and ppERK levels were determined by quantitative Western blotting.

In assay [3] the test system is BHK cells expressing constitutively active CRaf (FLAG-C-Raf-DD-CAAX). Briefly: Signaling in cells expressing constitutively active CRaf, Western blotting. Particulars: 6 μg/mL, 48 h, serum starved BHK cells. Type of assay: cell-based, hamster. As to the method: FIG. 6: Illustrates that fendiline HCl inhibition occurs at the level of Ras: Whole cell lysates from serum starved BHK cells expressing vector control, FLAG-C-Raf-DD-CAAX or Myc-B-Raf V600E treated with vehicle or fendiline HCl (6 μg/mL) for 48 h were analyzed by quantitative Western blotting. Representative Western blots of c-Raf, pMEK, pERK and Actin (loading control) are shown. Data is shown as mean±SEM from 3-4 independent experiments. Statistical significance was calculated using one way ANOVA and Student's T-test. (*=p<0.05), wherein experimentation was performed in accordance with principles described herein;
as §1
(§2) Quantification of intensities was performed using FluorChemQ software.

Assay [4] relates to MDCK and BHK cells expressing oncogenic mutant H-RasG12V. The assay can be described thus: Signaling in cells expressing oncogenic H-RasG12V, Western blotting. In kind it is cell-based, canine (MDCK), hamster (BHK). Particulars: to the similar extent as in K-rasG12V cells, 6 μg/mL, 48 h. As to the method: (§3) FIG. 7: Illustrates that H-rasG12V signals through endogenous K-ras: BHK cells stably expressing H-rasG12V were treated with vehicle or fendiline HCl (6 μg/mL) for 48 h. (A) ppMEK and ppERK in soluble protein fraction and pAkt levels in membrane protein fraction were measured by quantitative Western blotting. A representative blots are shown. (B) BHK cells stably expressing H-rasG12V were transfected with K-ras siRNA encoding plasmid. 24 h after transfection, cells were treated with vehicle or fendiline HCl (6 μg/mL) for a further 48 h. Whole cell lysates were prepared from serum starved cells and analyzed by quantitative Western blotting. Representative Western blots are shown. Data is shown as mean±SEM from 6 independent experiments. […] (*=p<0.05), and experimentation was performed in accordance with principles described herein;
as §1, §2

The subject of assay [5] is BHK cells expressing constitutively active H-ras with endogenous K-ras knocked down. Briefly: K-ras knockdown (siRNA) in H-rasG12V cells, pERK Western blotting. In kind it is cell-based, hamster. As to conditions: then 6 μg/mL for 48 h. As to the method:
as §3
BHK cells expressing GFP-tagged H-rasG12V were transfected with the ON-Target K-ras specific siRNA pool or non-targeting control siRNA pool (Dharmacon, Inc., Lafayette, Colo., USA) according to manufacturer's protocol. At 24 h post-transfection, the cells were treated with vehicle or Fendiline HCl; 48 h later (72 h total knockdown time) the cells were lysed for Western blot analysis. […]
as §2

Consider `CC(NCCC(c1ccccc1)c1ccccc1)c1ccccc1` (stereo not shown) [fendiline HCl], for which, in assay [1], the “soluble fraction of GFP-K-rasG12V” value was “increases the soluble fraction of GFP-K-rasG12V”. Further, in assay [2], the “reduction of the amount of active Raf compared to vehicle-treated control” value is given as “approximately 60%”. Further, the “signaling downstream of constitutively active CRaf” value in assay [3] is “had no effect on signaling downstream of constitutively active CRaf”. Besides, in assay [4], the pAkt levels entry is reported as “decreased”, the pERK levels result was “decreased” and the pMEK levels entry was “decreased”. Further, in assay [5], the “pERK levels after K-ras knockdown” value was “did not further reduce pERK levels”.
